These results are taken from patent US20050221501A1, “Dissolution method” (priority 2003, published 2005).

The nature of data set [1]: pH-dependent aqueous solubility of the Agent. Type of data set: physicochemical. The following applies: free-base form.
Data set [2] in a line: Biopharmaceutics Classification System (BCS) classification. Type of data set: physicochemical. From the text: Under the BCS system Class II compounds are sparingly soluble with high permeability.
For data set [3] the following is noted: aqueous dissolution medium containing 4% sodium lauryl sulfate, in 60 minutes; cited from earlier work.

In the case of `COc1cc2ncnc(Nc3ccc(F)c(Cl)c3)c2cc1OCCCN1CCOCC1` [Agent, 4-(3′-chloro-4′-fluoroanilino)-7-methoxy-6-(3-morpholinopropoxy)quinazoline], the solubility result in data set [1] (above pH 7) is on record as “very low solubility”. The “ml of aqueous solvent required to dissolve 1 g of Agent” value in data set [1] (pH 6) was at least 10000 mL. Besides, in data set [2], the BCS class result is on record as “Class II”.

Consider `COC1=CC(=O)C[C@@H](C)[C@]12Oc1c(Cl)c(OC)cc(OC)c1C2=O` [Griseofluvin], for which the “% dissolution” value in data set [3] is given as “at least 75%”.
